One data set concerns HCC827-GR cells. The experiment in a line: Confocal microscopy of EGFR and phosphorylated MET localization. It is filed as cell-based. As to conditions: detected in control samples. Here is the method: For immunofluorescence, HCC827-GR cell lines were grown on glass coverslips to 80% confluence. Cell cultures were washed with PBS and fixed with 4% (w/v) formaldehyde in PBS for 30 min at 37° C. After washing with PBS, cells were permeabilized with 0.1% v/v Triton X-100 in PBS for 10 min, rinsed three times in PBS and treated with 5% w/v bovine serum albumin for 1 h. Cells were then incubated overnight at 4° C. with mouse anti-EGFR pAb (sc-03; Santa Cruz Biotechnology; 1:800) and rabbit anti-MET mAb (Cell Signaling; 1:1,000) primary antibodies and for 1 h at room temperature with either Alexa Fluor 543-conjugated goat anti-rabbit IgG or Alexa Fluor 488-conjugated goat anti-mouse IgG (ThermoFisher Scientific; 1:1,000) secondary antibodies. All antibodies were diluted in PBS containing 5% w/v bovine serum albumin. Nuclei were stained using ToPro3 (Invitrogen). Confocal cellular images were captured with an inverted Zeiss LSM 510 Pascal laser confocal microscope (Carl Zeiss, Jenna, Germany), using a 63/1.4 Plan-Apochromat objective.

Another data set deals with T1, EGFR (Homo sapiens, UniProt P00533, DEL746-750).
T1 construct: endogenous in cells; host or cells: HCC827-GR NSCLC cells (MET amplified)
The format is cell-based. The following applies: HCC827-GR cells.

The subject of data set [1] is T98G cells. Kind of data set: Radiation clonogenic survival assay. It is filed as cell-based. The following applies: 10 μM NGI-1. Here is the method:
(§1) Radiation (XRT) doses of either 0, 2, 4, or 6 Gy were delivered with a Precision X-ray 320-kV orthovoltage unit at a dose rate of 2 Gy/45 seconds (PXI X-Ray Systems). Twenty-four hours following XRT cells were washed, trypsinized, and re-plated in triplicate wells to determine clonogenic survival. […] Growth rates were determined by CellTiter 96 Non-Radioactive Cell Proliferation Assay (Promega; Madison, Wis., USA) according to the manufacturer's directions. For each experiment one thousand cells were seeded in triplicate wells in 96-wells plates. The following day, cell cultures were treated with NGI-1 (1 μM), Temozolomide (TMZ, 10 μM), Etoposide (VP-16, 0.1 μM) or combinations for 5 days. Absorbance at 540 nm was measured using the spectrophotometric reading (BioTek Synergy 2; Winooski, Vt. USA).

Data set [2] relates to D54 cells. The experiment in a line: Radiation clonogenic survival assay. The format is cell-based. Here is the method: as §1
The test system of data set [3] is U251 cells. The experiment in a line: Radiation clonogenic survival assay. It is filed as cell-based. The following applies: 10 μM NGI-1. Here is the method: as §1
In another data set the test system is PC9 and PC9-GR cells. The experiment in a line: MTT proliferation assay. The following applies: both parental and T790M expressing PC9 cell lines; 10 μM NGI-1, 5 days. It is filed as cell-based. Here is the method:
(§2) The H1975 and A549 cell lines were purchased from ATCC (Manassas, Va.), the PC9 cell line was a gift from Katie Politi, and the HCC-827 and HCC-827-GR lines were gifts from Jeff Engelman (MGH, Boston Mass.). Cell lines were cultured in RPMI 1640+10% FBS supplemented with penicillin and streptomycin (Gibco, Life Technologies, Grand Island, N.Y., US) in a humidified incubator with 5% CO2, and they were kept in culture no more than 4 months after resuscitation from the original stocks. No additional authentication was performed. Mycoplasma cell culture contamination was routinely checked and ruled out using the MycoAlert Mycoplasma Detection Kit (Lonza, Rockland, Me. USA). To generate a TKI resistant cell lines, either PC9 or H1975 cells were exposed to increasing concentrations of gefitinib or osimertinib, respectively. Gefitinib or Osimertinib concentrations were increased stepwise when cells resumed growth kinetics similar to the untreated parental cells over a dose range from 10 to 500 nM. Resistant cell cultures were obtained ˜8-12 weeks after initiation of drug exposure. To confirm the emergence of a therapeutic resistant, MTT assays were performed after allowing the cells to grow in drug-free conditions for at least 4 days.
(§3) Growth rates were determined by CellTiter 96 NonRadioactive Cell Proliferation Assay (Promega; Madison, Wis., USA) according to the manufacturer's directions. Briefly, NSCLC cells (2×103) untreated or treated with 10 μM NGI-1, 100 nM Gefitinib, or 1 μM Osimertinib (Selleck Chemicals), were seeded in triplicate in 96-wells plates and grown in culture medium containing 10% serum. The media was changed with or without new inhibitor every 48 h. Cell numbers were estimated after 0, 3, and 5 days by adding MTT (3-(4,5-dimethylthiazol-2-yl)-2,5-diphenyltetrazolium bromide) reagent to the wells 4 h before taking the spectrophotometric reading (absorbance at 570 nm).

The test system of data set [4] is HCC827 and HCC827-GR cells. The experiment in a line: MTT proliferation assay. It is filed as cell-based. The following applies: both parental and HCC827-GR cells; 10 μM NGI-1, 5 days. Here is the method:
as §2, §3

A further data set has as its system H1975 and H1975-OR cells. Kind of data set: MTT proliferation assay. As to conditions: both parental and H1975-OR cell lines; 10 μM NGI-1, 5 days. It is filed as cell-based. Here is the method:
as §2, §3

A further data set in a line: Solubility. The format is physicochemical.
Data set [5] concerns T98G cells. Kind of data set: Cell cycle distribution by flow cytometry. It is filed as cell-based. Here is the method: (§4) Cell cycle distribution was determined following treatment with vehicle, radiation and/or 10 uM NGI-1. Cells were trypsinized and centrifuged, washed once with ice-cold PBS, fixed with ice-cold 70% ethanol and stored overnight at −20° C. After washing twice with PBS, they were incubated for 30 minutes at room temperature in 200 μL of Guava Cell Cycle Reagent (Guava Technologies). Cytofluorometric acquisitions were performed on a LSRII cytometer (BD Biosciences). First-line analysis was performed with FlowJo software, upon gating of the events characterized by normal forward and side scatter parameters and discrimination of doublets in a FSC-A vs. FSC-H bivariate plot. Approximately 50,000 cells were analyzed per experiment.

Data set [6] concerns D54 cells. The experiment in a line: Cell cycle distribution by flow cytometry. It is filed as cell-based. Here is the method:
as §4

Data set [7] relates to U251 cells. Kind of data set: Cell cycle distribution by flow cytometry. The format is cell-based. Here is the method: as §4
Another data set deals with CD8-EGFR. Kind of data set: Western blot of CD8-EGFR phosphorylation in SKMG3-CD8-EGFR cells. It is filed as cell-based, human. As to conditions: SKMG3 cells with stable expression of the CD8-EGFR. Here is the method: The CD8 cDNA was a gift from Paula Kavathas (Yale University). The CD8-EGFR was constructed according to a strategy that generated a constitutively active IGF-1R (24). The extracellular domain of CD8 was PCR amplified with a 5′ XbaI and 3′ SalI restriction site and cloned in-frame with the intracellular kinase domain of EGFR using the pDCB5-EGFR plasmid. SKMG3-CD8-EGFR cells were generated by Lipofectamine (Life Technologies) transfection of the plasmid followed by selection with 500 μg/ml G418.

Molecules are shown by their SMILES. “Also recorded” adds a separate entry of the source.

`Cc1cnc(NC(=O)c2cc(S(=O)(=O)N(C)C)ccc2N2CCCC2)s1` [NGI-1, 5-(dimethylsulfamoyl)-N-(5-methyl-1,3-thiazol-2-yl)-2-(pyrrolidin-1-yl)benzamide]: the “EGFR detected near the cell surface” value in the data set with HCC827-GR cells was “not in NGI-1 treated samples”. Besides, the EGFR phosphorylation result at EGFR was “significantly reduced”. Further, the “effect on SF2Gy” value in the data set with T98G cells [1] and in the data set on U251 cells [3] was “unaffected” each time. Besides, the “dose enhancement factor (DEF) at a surviving fraction of 0.4” value with D54 cells [2] (10 μM NGI-1) was 1.3. Moreover, in the data set on D54 cells [2] (10 μM NGI-1 48 hours before radiation, 69% without NGI-1), the “survival fraction at 2 Gy (SF2Gy)” value is 51%. The reduction of proliferation in the data set on PC9 and PC9-GR cells was around 90%; in data set [4] it was 80%; in the data set on H1975 and H1975-OR cells it was “more than 70%”. Also, in the data set “Solubility”, the solubility result is “low solubility; also recorded: solubility remains a significant challenge”. In addition, in the data set on T98G cells [5] (48 hours of NGI-1), the G1 arrest entry is “no arrest”. In addition, the “G1 arrest six hours after 4 Gy” value in the data set with T98G cells [5] (NGI-1 + 4 Gy) and with U251 cells [7] (NGI-1 + 4 Gy) was “not for either the T98G or U251 cells” throughout. Besides, the “cells in G1 (G1 arrest)” value in the data set with D54 cells [6] (48 hours of 10 uM NGI-1, control 75%) is reported as 83%; in the data set on U251 cells [7] (48 hours of 10 uM NGI-1, printed 64% vs. 72%), 64%. Besides, in the data set on D54 cells [6] (NGI-1 + 4 Gy, 66% without NGI-1), the “cells in G1 six hours after 4 Gy” value was determined as 77%. Moreover, in the data set with CD8-EGFR, the “CD8-EGFR phosphorylation (phospho-Y1068, phospho-Y845)” value is “resistant”.

The values above are taken from patent US10765638B2, “Particle formulation with polycation complex” (Yale University, priority 2017, dated 2020).
